Results reported in PMC7144373, “Composition and Orientation of the Core Region of Novel HIV-1 Entry Inhibitors Influences Metabolic Stability” (Molecules, 2020).

Key:
[1] = tested on: HIV-1B41 Env pseudotyped HIV-1; experiment: Single-round HIV-1 infection assay (luciferase reporter); details: for IC50: Human immunodeficiency virus 1, U87/CD4/CCR5, 48 h, read-out: IC50 against HIV-1B41 Env pseudotyped HIV-1; for IC50 against HIV-1B41 Env pseudotyped HIV-1: U87.CD4.CCR5 cells, single-round infection, 48 h
Procedure: HEK293T cells were plated in 6-well plates with density of 1 × 10^6 cells/well. After 24 h, the two vectors (vector 1 and vector 2) were co-transfected in a 3:4 ratio, respectively [16]. Vector 1 is an HIV-1 pNL4-3-Luc+R-E plasmid with two main features. The vector contains a premature stop codon in the Env gene and replaces HIV-1 Nef gene with the luciferase-reporter gene [19]. Vector 2 is a plasmid expressing the HIV-1B41 gp160 Env [20]. Transient transfections of these vectors were carried out via calcium phosphate (ProFection Mammalian Transfection System, Promega, Madison, WI) for 5 h in DMEM without supplements. After the 5 h incubation period, the medium was replaced with fresh culture media. Seventy-two hours post-transfection, virus was collected by filtering supernatants. The result was single-round infectious virus with pseudotyped envelopes that contained a luciferase reporter [16]. This was aliquoted and stored at −80 °C.
The single-round HIV-1 infection assay was performed as previously described [19, 21, 22]. U87.CD4.CCR5 cells were seeded in Greiner Bio-one 96-well luminometer-compatible tissue culture plates with a density of 1.2 × 10^4 cells/well. After 24 h, compounds underwent serial dilutions in DMEM. DMSO was used as a vehicle control (Sigma). These dilutions were mixed with thawed pseudotyped HIV-1 virus (normalized to p24 content) and added to the U87 cells 100 µL/well. The plates were incubated for 48 h at 37 °C. Post-incubation, the medium was aspirated from each well, and 50 μL/well of 1X luciferase lysis buffer (Promega) was added. The plates were placed at −80 °C for one freeze-thaw cycle. After thawing, 50 µL/well of the luciferase assay substrate (Promega) was added and the luciferase activity of each well was measured by a GloMax 96 microplate luminometer (Promega).

[2] = Metabolic stability in human liver microsomes; details: for k (rate of metabolism): 1.0 µM compound, 0.5 mg/mL HLM, NADPH, 37 °C; for Eh (hepatic extraction ratio): (Clh/Q) × 100; for Clapp: extrapolated for a human with scaling factors; for Clh: extrapolated, Q = 20 mL/min/kg; for half-life at 1 µM / microsomal CLint at 1 µM: human, human liver microsomes, pH 7.4
Procedure: Metabolic stability analysis was performed as outlined in Lu et al..
Preparation of solutions. Test compound was weighed and dissolved in 100% DMSO to get 10 mM stock solution. The stock solution was diluted to 100 μM with mixture of acetonitrile and H2O (1:1). The final concentrations of DMSO and acetonitrile were equal to or less than 0.1%. […]
Microsomal incubation. Liver microsomes incubations were conducted in duplicate in 96-well plates. […] Reactions were terminated at various time points (0, 5, 10, 20, 40 min) by adding 150 µL of ice-cold methanol and acetonitrile (1:1, v/v) containing the internal standard.
LC-MS/MS analysis: A Waters liquid chromatographic system was used. […] The flow rate was maintained at 0.6 mL/min. Detection was performed on an API4000 Q-Trap mass spectrometer equipped with TurboIonSpray (ESI) Interface (Applied Biosystems, Concord, Ontario, Canada). Analyst 1.5 software packages (Applied Biosystems) were used to control the LC-MS/MS system, and for data acquisition and processing.
Data analysis: The peak area ratio of a test compound to internal standard was plotted as a percentage of the relevant zero time point control (%remaining) for each reaction. The rate of metabolism (k) is the slope of the linear regression from log percentage remaining versus incubation time.

CYP3A4 = tested on: CYP3A4; set-up: method as in doi:10.1093/ofid/ofz360.2178; details: cited from earlier work
[3] = Cellular toxicity (CCK-8 cell viability); details: human, U87.CD4.CCR5 cells
U87.CD4.CCR5 cells = experiment: Cellular toxicity (CCK-8 cell viability)

SMILES | IC50 [1] | IC50 against HIV-1B41 Env pseudotyped HIV-1 [1] | k (rate of metabolism) [2] | Eh (hepatic extraction ratio) [2] | Clapp [2] | Clh [2] | half-life at 1 µM [2] | microsomal CLint at 1 µM [2] | Primary metabolizing isoform as determined (CYP3A4) | CC50 at 48 h [3] | Toxicity in words (U87.CD4.CCR5 cells) | Metabolic stability compared with temsavir/BMS-626529 ([2]; human liver microsome half-lives)
COc1cnc(-n2cnc(C)n2)c2[nH]cc(C(=O)C(=O)N3CC(C)N(C(=O)c4ccccc4)C(C)C3)c12 (centres unmarked) [SC54, 1-(4-benzoyl-3,5-dimethylpiperazin-1-yl)-2-(4-methoxy-7-(3-methyl-1H-1,2,4-triazol-1-yl)-1H-pyrrolo[2,3-c]pyridin-3-yl)ethane-1,2-dione] | 0.41 ± 0.061 nM | low nanomolar range | 0.02223 | 68.19% | 42.88 mL/min/kg | 13.64 mL/min/kg | 31.2 min | 44.5 µL/min/mg | – | – | – | –
COc1cnc(-n2cnc(C)n2)c2[nH]cc(C(=O)C(=O)N3Cc4cnn(-c5ccccc5)c4C3)c12 [SC12] | 6 ± 0.3 nM | – | 0.1058 | 91.0753% | 204.1 mL/min/kg | 18.22 mL/min/kg | 6.55 min | 212 µL/min/mg | – | – | – | –
COc1cnc(-n2cnc(C)n2)c2[nH]cc(C(=O)C(=O)N3CC(CCC(=O)c4ccccc4)C3)c12 [SC15] | 7 ± 0.1 nM | – | 0.05268 | 83.55% | 101.588 mL/min/kg | 16.710 mL/min/kg | 13.2 min | 105 µL/min/mg | – | – | – | –
COc1cnc(-n2cnc(C)n2)c2[nH]cc(C(=O)C(=O)N3CCN(C(=O)c4ccccc4)CC3)c12 [BMS-626529, reference compound] | 0.05 ± 0.006 nM | – | – | – | – | – | – | – | CYP3A4 | – | – | –
COc1cnc(-n2cnc(C)n2)c2[nH]cc(C(=O)C(=O)N3CC4CN(C(=O)c5ccccc5)CC4C3)c12 (centres unmarked) [SC11] | 2 ± 0.2 nM | – | 0.07253 | 87.49% | 139.887 mL/min/kg | 17.498 mL/min/kg | 9.6 min | 145 µL/min/mg | – | – | – | –
COc1cnc(-n2cnc(C)n2)c2[nH]cc(C(=O)C(=O)N3C[C@@H]4[C@H](C3)[C@H]4NC(=O)c3ccccc3)c12 [SC46] | 91.5 nM | low nanomolar range | 0.0076 | 42.28% | 14.657 mL/min/kg | 8.455 mL/min/kg | 91.2 min | 15.2 µL/min/mg | – | > 1000 µM | very low toxicities | –
COc1cnc(-n2cnc(C)n2)c2[nH]cc(C(=O)C(=O)NC3C4CN(C(=O)c5ccccc5)CC43)c12 (centres unmarked) [SC28] | – | – | 0.00479 | 31.61% | 9.245 mL/min/kg | 6.322 mL/min/kg | 145 min | 9.6 µL/min/mg | – | > 400 µM | very low toxicities | more than twice the metabolic stability of temsavir/BMS-626529
C[C@]12CC[C@H]3[C@@H](CCC4=CC(=O)CC[C@@]43C)[C@@H]1CC[C@@H]2O [Testosterone, reference compound] | – | – | 0.05134 | – | 99.005 mL/min/kg | 16.639 mL/min/kg | – | – | – | – | – | –
